Data published in patent publication US10294202B2, “Pyrrolidinones as herbicides” (FMC Corporation, priority 2013, dated 2019).

What was measured:
johnsongrass = test: Test C pre-/postemergence herbicide test; format: in vivo, Sorghum halepense; details: for Johnsongrass plant response rating: scale 0 to 100, 0 is no effect and 100 is complete control; for Plant response rating (scale of 0 to 100), Johnsongrass: 250 g ai/ha
How it was run: (§1)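 Herbicidal effect was judged by eye 13 to 15 days after treatment in the greenhouse, using a 0–100 scale against controls. Chemicals in a non-phytotoxic solvent with surfactant were sprayed onto planted loam/sand soil or onto plants 2 to 18 cm tall in a peat-based growing medium.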

corn [1] = test: Test C pre-/postemergence herbicide test; format: in vivo, Zea mays; details: for Plant response rating (scale of 0 to 100), Corn: 250 g ai/ha
How it was run: as §1

foxtail, giant = test: Test C pre-/postemergence herbicide test; format: in vivo, Setaria faberii; details: for Plant response rating (scale of 0 to 100), Foxtail, Giant: 250 g ai/ha
How it was run: as §1

corn [2] = test: Test A pre-/postemergence herbicide test; format: in vivo, Zea mays; details: for Corn plant response rating: Preemergence, visual rating on 0 to 100 scale (0 no effect, 100 complete control)
How it was run: (§2)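 Both application timings used compounds in a non-phytotoxic solvent plus surfactant. Pre-emergence: soil sprayed directly after seeding into loam/sand. Post-emergence: foliage of 2–10 cm seedlings (1–2 leaves) sprayed. Injury rated ~10 days later, 0–100.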

galium = test: Test C pre-/postemergence herbicide test; format: in vivo, Galium aparine; details: Preemergence; for Plant response rating (scale of 0 to 100), Galium: 250 g ai/ha; for Galium plant response rating: 31 g ai/ha
How it was run: as §1

wheat = test: Test A pre-/postemergence herbicide test; format: in vivo, Triticum aestivum; details: for Wheat plant response rating: Preemergence, visual rating on 0 to 100 scale (0 no effect, 100 complete control)
How it was run: as §2

sedge, umbrella = test: Test B flooded paddy test; format: in vivo, Cyperus difformis; details: 250 g ai/ha, Flood; scale of 0 to 100 where 0 is no effect and 100 is complete control
How it was run: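 2-leaf plants; flood 3 cm over soil; compound into paddy water; depth held. Greenhouse 13–15 d. Visual rating vs controls, 0 (no effect) to 100 (complete control); dash = not tested.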

oilseed rape = test: Test C pre-/postemergence herbicide test; format: in vivo, Brassica napus; details: Preemergence
How it was run: as §1

giant foxtail = test: Test A pre-/postemergence herbicide test; format: in vivo, Setaria faberii; details: for Foxtail, Giant plant response rating: Preemergence, visual rating on 0 to 100 scale (0 no effect, 100 complete control)
How it was run: as §2

blackgrass = test: Test C pre-/postemergence herbicide test; format: in vivo, Alopecurus myosuroides; details: for Plant response rating (scale of 0 to 100), Blackgrass: 250 g ai/ha
How it was run: as §1

ragweed = test: Test C pre-/postemergence herbicide test; format: in vivo, Ambrosia elatior
How it was run: as §1

[3] = Preemergence, 62 g ai/ha, scale 0 to 100
[4] = Preemergence, 125 g ai/ha, scale 0 to 100 (0 no effect, 100 complete control)
[5] = Preemergence, 31 g ai/ha, scale 0 to 100, 0 is no effect and 100 is complete control
[6] = Postemergence, 125 g ai/ha, 0 to 100 scale, 0 no effect, 100 complete control
[7] = Postemergence, 500 g ai/ha, 0 to 100 scale (0 no effect, 100 complete control)
[8] = preemergence, 500 g ai/ha, 0 to 100 scale
[9] = 125 g ai/ha, scale 0 to 100 (0 no effect, 100 complete control)
[10] = Postemergence, 31 g ai/ha, scale 0 (no effect) to 100 (complete control)
[11] = Postemergence, 62 g ai/ha, scale 0 to 100 (0 no effect, 100 complete control)
[12] = Postemergence, 125 g ai/ha, scale 0 to 100 (0 no effect, 100 complete control)
[13] = Preemergence, 31 g ai/ha, scale 0 to 100 (0 no effect, 100 complete control)

Compound: O=C1NCC(c2ccc(F)c(C(F)(F)F)c2)C1C(=O)Nc1cccc(F)c1F (racemic) [Compound 77]
- Johnsongrass plant response rating (johnsongrass; Preemergence, 31 g ai/ha): 20
- Plant response rating, Johnsongrass (johnsongrass; [3]): 55
- Plant response rating, Johnsongrass (johnsongrass; [4]): 75
- Plant response rating (scale of 0 to 100), Johnsongrass (johnsongrass; Preemergence): 90
- Corn plant response rating (corn [1]; [5]): 0
- Plant response rating, Corn (corn [1]; [3]): 20
- Plant response rating, Corn (corn [1]; [4]): 55
- Plant response rating (scale of 0 to 100), Corn (corn [1]; Preemergence): 70
- Foxtail, Giant plant response rating (foxtail, giant; [5]): 90
- Plant response rating, Foxtail, Giant (foxtail, giant; [3]): 90
- Plant response rating, Foxtail, Giant (foxtail, giant; [4]): 95
- Plant response rating (scale of 0 to 100), Foxtail, Giant (foxtail, giant; Preemergence): 100
- Plant response rating, Corn (corn [2]; [6]): 50
- Plant response rating, Corn (corn [2]; [7]): 70
- Corn plant response rating (corn [2]; 125 g ai/ha): 0
- Plant response rating, Corn (corn [2]; [8]): 30
- Plant response rating, Galium (galium; 62 g ai/ha, scale 0 to 100): 5
- Plant response rating, Galium (galium; [9]): 80
- Plant response rating (scale of 0 to 100), Galium (galium): 90
- Plant response rating, Wheat (wheat; [6]): 50
- Plant response rating, Wheat (wheat; [7]): 60
- Wheat plant response rating (wheat; 125 g ai/ha): 0
- Plant response rating, Wheat (wheat; [8]): 30
- Plant response rating, Sedge, Umbrella (sedge, umbrella): 0
- Oilseed Rape plant response rating (oilseed rape; 31 g ai/ha, scale 0 to 100, 0 is no effect and 100 is complete control): 0
- Plant response rating, Oilseed Rape (oilseed rape; 62 g ai/ha, scale 0 to 100): 30
- Plant response rating, Oilseed Rape (oilseed rape; [9]): 60
- Plant response rating (scale of 0 to 100), Oilseed Rape (oilseed rape; 250 g ai/ha): 85
- Plant response rating, Foxtail, Giant (giant foxtail; [6]): 80
- Plant response rating, Foxtail, Giant (giant foxtail; [7]): 80
- Foxtail, Giant plant response rating (giant foxtail; 125 g ai/ha): 90
- Plant response rating, Foxtail, Giant (giant foxtail; [8]): 90
- Blackgrass plant response rating (blackgrass; [5]): 85
- Plant response rating, Blackgrass (blackgrass; [3]): 85
- Plant response rating, Blackgrass (blackgrass; [4]): 85
- Plant response rating (scale of 0 to 100), Blackgrass (blackgrass; Preemergence): 95

Compound: O=C1NCC(c2ccc(F)c(Cl)c2)C1C(=O)Nc1ccccc1F (stereo not drawn) [Compound 60]
- Plant response rating, Johnsongrass (johnsongrass; [10]): 5
- Plant response rating, Johnsongrass (johnsongrass; [11]): 5
- Plant response rating, Johnsongrass (johnsongrass; [12]): 5
- Plant response rating, Johnsongrass (johnsongrass; [3]): 20
- Plant response rating, Johnsongrass (johnsongrass; [4]): 20
- Plant response rating, Corn (corn [1]; [10]): 0
- Plant response rating, Corn (corn [1]; [11]): 0
- Plant response rating, Corn (corn [1]; [12]): 0
- Plant response rating, Corn (corn [1]; [3]): 10
- Plant response rating, Corn (corn [1]; [4]): 20
- Corn plant response rating (corn [1]; [13]): 0
- Plant response rating, Foxtail, Giant (foxtail, giant; [10]): 0
- Plant response rating, Foxtail, Giant (foxtail, giant; [11]): 15
- Plant response rating, Foxtail, Giant (foxtail, giant; [12]): 30
- Plant response rating, Foxtail, Giant (foxtail, giant; [3]): 85
- Plant response rating, Foxtail, Giant (foxtail, giant; [4]): 90
- Foxtail, Giant plant response rating (foxtail, giant; [13]): 70
- Plant response rating, Corn (corn [2]; [6]): 0
- Plant response rating, Corn (corn [2]; [7]): 60
- Corn plant response rating (corn [2]; 125 g ai/ha): 0
- Plant response rating, Corn (corn [2]; [8]): 0
- Plant response rating, Galium (galium; 62 g ai/ha, scale 0 to 100): 0
- Plant response rating, Galium (galium; [9]): 5
- Galium plant response rating (galium; scale 0 to 100 (0 no effect, 100 complete control)): 0
- Plant response rating, Wheat (wheat; [6]): 0
- Plant response rating, Wheat (wheat; [7]): 50
- Wheat plant response rating (wheat; 125 g ai/ha): 0
- Plant response rating, Wheat (wheat; [8]): 0
- Plant response rating, Sedge, Umbrella (sedge, umbrella): 60
- Plant response rating, Ragweed (ragweed; [10]): 10
- Plant response rating, Ragweed (ragweed; [11]): 25
- Plant response rating, Ragweed (ragweed; [12]): 35
- Plant response rating, Ragweed (ragweed; [3]): 10
- Plant response rating, Ragweed (ragweed; [4]): 25
- Plant response rating, Foxtail, Giant (giant foxtail; [6]): 80
- Plant response rating, Foxtail, Giant (giant foxtail; [7]): 80
- Foxtail, Giant plant response rating (giant foxtail; 125 g ai/ha): 90
- Plant response rating, Foxtail, Giant (giant foxtail; [8]): 90
- Plant response rating, Blackgrass (blackgrass; [10]): 0
- Plant response rating, Blackgrass (blackgrass; [11]): 0
- Plant response rating, Blackgrass (blackgrass; [12]): 0
- Plant response rating, Blackgrass (blackgrass; [3]): 10
- Plant response rating, Blackgrass (blackgrass; [4]): 40
- Blackgrass plant response rating (blackgrass; [13]): 0

Compound: O=C1NCC(c2cccc(OC(F)(F)F)c2)C1C(=O)Nc1ccccc1F (stereo not drawn) [Compound 69]
- Johnsongrass plant response rating (johnsongrass; Preemergence, 31 g ai/ha): 0
- Plant response rating, Johnsongrass (johnsongrass; [3]): 0
- Plant response rating, Johnsongrass (johnsongrass; [4]): 0
- Plant response rating (scale of 0 to 100), Johnsongrass (johnsongrass; Preemergence): 0
- Corn plant response rating (corn [1]; [5]): 15
- Plant response rating, Corn (corn [1]; [3]): 15
- Plant response rating, Corn (corn [1]; [4]): 25
- Plant response rating (scale of 0 to 100), Corn (corn [1]; Preemergence): 30
- Foxtail, Giant plant response rating (foxtail, giant; [5]): 75
- Plant response rating, Foxtail, Giant (foxtail, giant; [3]): 85
- Plant response rating, Foxtail, Giant (foxtail, giant; [4]): 85
- Plant response rating (scale of 0 to 100), Foxtail, Giant (foxtail, giant; Preemergence): 90
- Plant response rating, Corn (corn [2]; [6]): 20
- Plant response rating, Corn (corn [2]; [7]): 90
- Corn plant response rating (corn [2]; 125 g ai/ha): 0
- Plant response rating, Corn (corn [2]; [8]): 0
- Galium plant response rating (galium; scale 0 to 100, 0 is no effect and 100 is complete control): 0
- Plant response rating, Galium (galium; 62 g ai/ha, scale 0 to 100): 0
- Plant response rating, Galium (galium; [9]): 5
- Plant response rating (scale of 0 to 100), Galium (galium): 75
- Plant response rating, Wheat (wheat; [6]): 0
- Plant response rating, Wheat (wheat; [7]): 40
- Wheat plant response rating (wheat; 125 g ai/ha): 0
- Plant response rating, Wheat (wheat; [8]): 20
- Plant response rating, Sedge, Umbrella (sedge, umbrella): 65
- Ragweed plant response rating (ragweed; [5]): 0
- Plant response rating, Ragweed (ragweed; [3]): 0
- Plant response rating, Ragweed (ragweed; [4]): 0
- Plant response rating (scale of 0 to 100), Ragweed (ragweed; Preemergence, 250 g ai/ha): 20
- Plant response rating, Foxtail, Giant (giant foxtail; [6]): 80
- Plant response rating, Foxtail, Giant (giant foxtail; [7]): 80
- Foxtail, Giant plant response rating (giant foxtail; 125 g ai/ha): 90
- Plant response rating, Foxtail, Giant (giant foxtail; [8]): 90
- Blackgrass plant response rating (blackgrass; [5]): 0
- Plant response rating, Blackgrass (blackgrass; [3]): 5
- Plant response rating, Blackgrass (blackgrass; [4]): 30
- Plant response rating (scale of 0 to 100), Blackgrass (blackgrass; Preemergence): 35
